From patent US7595313B2, “Nitric oxide donating diuretic compounds, compositions and methods of use” (NicOx, S.A., priority 2005, dated 2009)
Counter-ions that a name gives are not always drawn.

Columns and labels:
Male Wistar rats = assay: Determination of the diuresis (urine volume over 6 hours after oral dosing); type: in vivo, rat
Protocol: Procedures were approved by the Institutional Animal Care and Use Committee of NitroMed, Inc. Male Wistar rats (180-200 g) were purchased from Charles River Laboratories (Kingston, N.Y. or Raleigh, N.C.) and allowed to acclimate in the facility for a period of at least 72 h. Rats were randomly housed 2-3 per cage in a light-controlled room with a 12 hour light/dark cycle and allowed ad libitum access to food and water.
Prior to the experiment, each rat was placed in a metabolic cage and allowed to acclimate for a period of 24-48 hours with food and water ad libitum. During this acclimation period, rats received mash food instead of pellet food to prevent contamination of the urine samples. All rats were fasted for 18 hours prior to experimentation. In addition, water was removed 90 minutes prior to oral dosing with test compound or vehicle.
The test compounds were prepared immediately prior to dosing in 0.5% Methocel (F4M Premium Hydroxypropyl Methylcellulose, lot # PF12012N12; Dow Chemical Company, USA) and homogenized with a glass/Teflon pestle motorized homogenizer. Gently vortexed test compounds were administered intragastrically (p.o.; 30 mg/kg or 3 mg/kg) at a dose volume of 3 ml per rat using an 18 gauge gavage needle. Urine volume (ml) was monitored and urine was collected for subsequent electrolyte analysis over a 6 hours period. […] Data are expressed as mean ±SEM; n=6 or 7.

[1] = p.o. 3 mg/kg in 0.5% Methocel, male Wistar rats, 6 hours, mean ± SEM, n=6 or 7
[2] = p.o. 30 mg/kg in 0.5% Methocel, male Wistar rats, 6 hours, mean ± SEM, n=6 or 7

Row | Structure (SMILES) | melting point | further results
1 | NS(=O)(=O)c1cc2c(cc1Cl)NCN(C(CO)CO)S2(=O)=O [Example 78b, 2H-1,2,4-Benzothiadiazine-7-sulfonamide, 6-chloro-3,4-dihydro-2-[2-hydroxy-1-(hydroxymethyl)ethyl]-, 1,1-dioxide] | 139 to 143 °C | Urine collected in 6 hours (mL) (3 mg/kg) (Male Wistar rats; [1]): 2.7 ± 0.8 mL
2 | NS(=O)(=O)c1cc2c(cc1Cl)NC(CCc1cc(CO[N+](=O)[O-])cc(CO[N+](=O)[O-])c1)NS2(=O)=O (stereo not shown) [Example 80b, 2H-1,2,4-Benzothiadiazine-7-sulfonamide, 3-[2-[3,5-bis[(nitrooxy)methyl]phenyl]ethyl]-6-chloro-3,4-dihydro-, 1,1-dioxide] | 101 to 104 °C | Urine collected in 6 hours (mL) (3 mg/kg) (Male Wistar rats; rat, in vivo, po): 3.9 ± 0.5 mL
3 | NS(=O)(=O)c1cc2c(cc1Cl)NC(CCCCCO[N+](=O)[O-])=NS2(=O)=O [Example 20c, 4H-1,2,4-Benzothiadiazine-7-sulfonamide, 6-chloro-3-[5-(nitrooxy)pentyl]-, 1,1-dioxide] | 170 to 172 °C | Urine collected in 6 hours (mL) (30 mg/kg) (Male Wistar rats; [2]): 3.0 ± 0.9 mL
4 | NS(=O)(=O)c1cc2c(cc1Cl)NC(CCC(CO[N+](=O)[O-])O[N+](=O)[O-])NS2(=O)=O (stereo not shown) [Example 6b, 2H-1,2,4-Benzothiadiazine-7-sulfonamide, 3-[3,4-bis(nitrooxy)butyl]-6-chloro-3,4-dihydro-, 1,1-dioxide] | 153 to 155 °C | Urine collected in 6 hours (mL) (30 mg/kg) (Male Wistar rats; rat, in vivo, po): 6.8 ± 0.5 mL
5 | CC1(C)CC(CC2Nc3cc(Cl)c(S(N)(=O)=O)cc3S(=O)(=O)N2)CC(C)(C)N1O (stereo not shown) [Example 77, 2H-1,2,4-Benzothiadiazine-7-sulfonamide, 6-chloro-3,4-dihydro-3-[(1-hydroxy-2,2,6,6-tetramethyl-4-piperidinyl)methyl]-, 1,1-dioxide] | 174 to 176 °C | Urine collected in 6 hours (mL) (3 mg/kg) (Male Wistar rats; p.o. 3 mg/kg in 0.5% Methocel, male Wistar rats, 6 hours, mean ± SEM, n=6 or 7, 3 mg/kg): 2.3 ± 0.4 mL
6 | NS(=O)(=O)c1cc2c(cc1C(F)(F)F)NC(CCC(CO[N+](=O)[O-])O[N+](=O)[O-])NS2(=O)=O (stereo not shown) [Example 7, 2H-1,2,4-benzothiadiazine-7-sulfonamide, 3-[3,4-bis(nitrooxy)butyl]-3,4-dihydro-6-(trifluoromethyl)-, 1,1-dioxide] | 157 to 160 °C (dec.) | Urine collected in 6 hours (mL) (30 mg/kg) (Male Wistar rats; rat, in vivo, po): 5.7 ± 0.4 mL
7 | NS(=O)(=O)c1cc2c(cc1Cl)NC(CNC(=O)CN(CCO[N+](=O)[O-])CCO[N+](=O)[O-])NS2(=O)=O (stereo not shown) [Example 57c, Acetamide, N-[[7-(aminosulfonyl)-6-chloro-3,4-dihydro-1,1-dioxido-2H-1,2,4-benzothiadiazin-3-yl]methyl]-2-[bis[2-(nitrooxy)ethyl]amino]-] | 118 °C (dec.) | Urine collected in 6 hours (mL) (3 mg/kg) (Male Wistar rats; rat, in vivo, po): 3.6 ± 0.6 mL
8 | NS(=O)(=O)c1cc2c(cc1C(F)(F)F)NC(CCCO[N+](=O)[O-])NS2(=O)=O (stereo not shown) [Example 3d, 2H-1,2,4-Benzothiadiazine-7-sulfonamide, 3,4-dihydro-3-[3-(nitrooxy)propyl]-6-(trifluoromethyl)-, 1,1-dioxide] | 165 °C (dec.) | Urine collected in 6 hours (mL) (30 mg/kg) (Male Wistar rats; [2]): 5.3 ± 0.8 mL
9 | NS(=O)(=O)c1cc2c(cc1Cl)NCN(Cc1cccc(CO[N+](=O)[O-])c1)S2(=O)=O [Example 33, 2H-1,2,4-Benzothiadiazine-7-sulfonamide, 6-chloro-3,4-dihydro-2-[[3-[(nitrooxy)methyl]phenyl]methyl]-, 1,1-dioxide] | 136 to 139 °C (dec.) | Urine collected in 6 hours (mL) (3 mg/kg) (Male Wistar rats; [1]): 3.0 ± 0.4 mL
10 | NS(=O)(=O)c1cc2c(cc1Cl)NCN(CCCCCCO[N+](=O)[O-])S2(=O)=O [Example 58b, 2H-1,2,4-Benzothiadiazine-7-sulfonamide, 6-chloro-3,4-dihydro-2-[6-(nitrooxy)hexyl]-, 1,1-dioxide] | 158 to 160 °C | Urine collected in 6 hours (mL) (3 mg/kg) (Male Wistar rats; [1]): 6.3 ± 0.2 mL
11 | NS(=O)(=O)c1cc2c(cc1C(F)(F)F)NC1(CCN(C(=O)CCCCO[N+](=O)[O-])CC1)NS2(=O)=O [Example 12c, Spiro[2H-1,2,4-benzothiadiazine-3(4H), 4′-piperidine]-7-sulfonamide, 1′-[5-(nitrooxy)-1-oxopentyl]-6-(trifluoromethyl)-, 1,1-dioxide] | 178 °C (dec.) | 
12 | NS(=O)(=O)c1cc2c(cc1Cl)NC(CCc1cc(CO)cc(CO)c1)NS2(=O)=O (stereo not shown) [Example 79d, 2H-1,2,4-Benzothiadiazine-7-sulfonamide, 3-[2-[3,5-bis(hydroxymethyl)phenyl]ethyl]-6-chloro-3,4-dihydro-, 1,1-dioxide] | 218 °C | 
13 | NS(=O)(=O)c1cc2c(cc1Cl)NC(CCO[N+](=O)[O-])NS2(=O)=O (stereo not shown) [Example 74b, 2H-1,2,4-Benzothiadiazine-7-sulfonamide, 6-chloro-3,4-dihydro-3-[2-(nitrooxy)ethyl]-, 1,1-dioxide] | 113 to 117 °C | 
14 | NS(=O)(=O)c1cc2c(cc1Cl)NCN(CCCO[N+](=O)[O-])S2(=O)=O [Example 35b, 2H-1,2,4-Benzothiadiazine-7-sulfonamide, 6-chloro-3,4-dihydro-2-[3-(nitrooxy)propyl]-, 1,1-dioxide] | 148 to 151 °C (dec.) | 
15 | NS(=O)(=O)c1cc2c(cc1Cl)NCN(CCCCCO)S2(=O)=O [Example 60, 2H-1,2,4-Benzothiadiazine-7-sulfonamide, 6-chloro-3,4-dihydro-2-(5-hydroxypentyl)-, 1,1-dioxide] | 177 to 179 °C | 
16 | NS(=O)(=O)c1cc2c(cc1C(F)(F)F)NC(CCCCCO)NS2(=O)=O (stereo not shown) [Example 25b, 2H-1,2,4-Benzothiadiazine-7-sulfonamide, 3,4-dihydro-3-(5-hydroxypentyl)-6-(trifluoromethyl)-, 1,1-dioxide] | 97 °C | 
17 | Cc1c(C2Nc3cc(C(F)(F)F)c(S(N)(=O)=O)cc3S(=O)(=O)N2)no[n+]1[O-] (stereo not shown) (as salt: HCl) [Example 10, 2H-1,2,4-Benzothiadiazine-7-sulfonamide, 3,4-dihydro-3-(4-methyl-5-oxido-1,2,5-oxadiazol-3-yl)-6-(trifluoromethyl)-, 1,1-dioxide] | 160 °C | 
18 | NS(=O)(=O)c1cc2c(cc1C(F)(F)F)NC(CCCCO[N+](=O)[O-])NS2(=O)=O (stereo not shown) [Example 61b, 2H-1,2,4-Benzothiadiazine-7-sulfonamide, 3,4-dihydro-3-[4-(nitrooxy)butyl]-6-(trifluoromethyl)-, 1,1-dioxide] | 171 to 177 °C | 
19 | CN(CC1Nc2cc(Cl)c(S(N)(=O)=O)cc2S(=O)(=O)N1)C(=O)CN(CCO[N+](=O)[O-])CCO[N+](=O)[O-] (stereo not shown) | 183 to 185 °C (dec.) | 
20 | NS(=O)(=O)c1cc2c(cc1Cl)NCN(Cc1cc(CO[N+](=O)[O-])cc(OCCCCBr)c1)S2(=O)=O [Example 68d, 2H-1,2,4-Benzothiadiazine-7-sulfonamide, 2-[[3-(4-bromobutoxy)-5[(nitrooxy)methyl]phenyl]methyl]-6-chloro-3,4-dihydro-, 1,1-dioxide] | 80 °C | 
21 | NS(=O)(=O)c1cc2c(cc1Cl)NCN(CCCCO[N+](=O)[O-])S2(=O)=O (as salt: potassium) [Example 40b, 2H-1,2,4-Benzothiadiazine-7-sulfonamide, 6-chloro-3,4-dihydro-2-[4-(nitrooxy)butyl]-, 1,1-dioxide] | 75 to 77 °C | 
